From publication PMC10287695, “Non-covalent inhibitors of thioredoxin glutathione reductase with schistosomicidal activity in vivo” (Nature Communications, 2023)
Several values for one entry are separate records, joined by “and”; a condition that tells them apart may be missing. Equal values may be shown once.

System: TGR in newly transformed schistosomula (NTS)
Test: TGR inhibition in NTS with TRFS-Green fluorescent probe;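 further: untreated reference is NTS exposed to TRFS-Green probe alone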
Assay type: cell-based, S. mansoni
Conditions: NTS
Protocol: TGR inhibition in NTS was assessed using a fluorescent probe TRFS-Green (Medchemexpress)[43]. NTS prepared as previously described and cultured in M199 supplemented with 5.5 mM D-glucose, penicillin-streptomycin and 5% heat inactivated fetal bovine serum were incubated at 37 °C in a clear bottom flat well plate in a 5% CO2 incubator overnight. […] NTS were further treated with TRFS-Green (10 µM) for additional 4 h and rinsed with M199 medium to remove residual TRFS-Green. Fluorescence images were obtained using Keyence BZ-X800. The quantification of fluorescence intensity upon the uptake of TRFS-Green by NTS was performed by a fluorescent microplate imager (BioTek Cytation3) (excitation, 438 nm; emission, 538 nm) hourly for 5 h and after 24 h.

Compound	TGR inhibition visualized by TRFS-Green, Average (1hr, 5 µM)	TGR inhibition visualized by TRFS-Green, single replicate (1hr, 5 µM)	TGR inhibition visualized by TRFS-Green, Average (1hr, 15 µM)	TGR inhibition visualized by TRFS-Green, single replicate (1hr, 15 µM)	TGR inhibition visualized by TRFS-Green, Average (1hr, 30 µM)	TGR inhibition visualized by TRFS-Green, single replicate (1hr, 30 µM)	TGR inhibition visualized by TRFS-Green, Average (2hr, 5 µM)	TGR inhibition visualized by TRFS-Green, single replicate (2hr, 5 µM)	TGR inhibition visualized by TRFS-Green, Average (2hr, 15 µM)	TGR inhibition visualized by TRFS-Green, single replicate (2hr, 15 µM)	TGR inhibition visualized by TRFS-Green, Average (2hr, 30 µM)	TGR inhibition visualized by TRFS-Green, single replicate (2hr, 30 µM)	TGR inhibition visualized by TRFS-Green, Average (3hr, 5 µM)	TGR inhibition visualized by TRFS-Green, single replicate (3hr, 5 µM)	TGR inhibition visualized by TRFS-Green, Average (3hr, 15 µM)	TGR inhibition visualized by TRFS-Green, single replicate (3hr, 15 µM)	TGR inhibition visualized by TRFS-Green, Average (3hr, 30 µM)	TGR inhibition visualized by TRFS-Green, single replicate (3hr, 30 µM)	TGR inhibition visualized by TRFS-Green, Average (4hr, 5 µM)	TGR inhibition visualized by TRFS-Green, single replicate (4hr, 5 µM)	also measured
Cc1oc(-c2ccc3c(c2)OCO3)nc1CN[C@@H]1C[C@@H]2C[C@H]([C@H]1C)C2(C)C [C1 (8VP70)]	10571.8	10560.7 and 10583	9457	9312 and 9602	9252.5	9204 and 9301	14162	14242 and 14082	13529	13095 and 13963	11887.5	11941 and 11834	23711	23581 and 23841	21817.5	21984 and 21651	16831	16892 and 16770	25462.5	25241 and 25684	TGR inhibition visualized by TRFS-Green, Average (4hr, 15 µM): 21898; TGR inhibition visualized by TRFS-Green, single replicate (4hr, 15 µM): 21795 and 22001; TGR inhibition visualized by TRFS-Green, Average (4hr, 30 µM): 16836.5; TGR inhibition visualized by TRFS-Green, single replicate (4hr, 30 µM): 16939 and 16734; TGR inhibition visualized by TRFS-Green, Average (5hr, 5 µM): 26920; TGR inhibition visualized by TRFS-Green, single replicate (5hr, 5 µM): 26917 and 26923; TGR inhibition visualized by TRFS-Green, Average (5hr, 15 µM): 22092; TGR inhibition visualized by TRFS-Green, single replicate (5hr, 15 µM): 23039 and 21145; TGR inhibition visualized by TRFS-Green, Average (5hr, 30 µM): 16893.5; TGR inhibition visualized by TRFS-Green, single replicate (5hr, 30 µM): 16853 and 16934; TGR inhibition visualized by TRFS-Green, Average (24hr, 5 µM): 28552; TGR inhibition visualized by TRFS-Green, single replicate (24hr, 5 µM): 28103 and 29001; TGR inhibition visualized by TRFS-Green, Average (24hr, 15 µM): 23755.5; TGR inhibition visualized by TRFS-Green, single replicate (24hr, 15 µM): 23599 and 23912; TGR inhibition visualized by TRFS-Green, Average (24hr, 30 µM): 16807; TGR inhibition visualized by TRFS-Green, single replicate (24hr, 30 µM): 16780 and 16834
CCc1ccccc1-c1nc(CN[C@@H]2C[C@@H]3C[C@H]([C@H]2C)C3(C)C)c(C)o1 [C2 (8VP101)]	10460.5	10308 and 10613	10104	10086 and 10122	9753	9694 and 9812	13787	13840 and 13734	11633.5	11622 and 11645	11195	11148 and 11242	19344	19467 and 19221	14723.5	14460 and 14987	13932.5	14033 and 13832	23362.5	23074 and 23651	TGR inhibition visualized by TRFS-Green, Average (4hr, 15 µM): 14824.5; TGR inhibition visualized by TRFS-Green, single replicate (4hr, 15 µM): 14826 and 14823; TGR inhibition visualized by TRFS-Green, Average (4hr, 30 µM): 13941.5; TGR inhibition visualized by TRFS-Green, single replicate (4hr, 30 µM): 13992 and 13891; TGR inhibition visualized by TRFS-Green, Average (5hr, 5 µM): 26593; TGR inhibition visualized by TRFS-Green, single replicate (5hr, 5 µM): 26274 and 26912; TGR inhibition visualized by TRFS-Green, Average (5hr, 15 µM): 16217; TGR inhibition visualized by TRFS-Green, single replicate (5hr, 15 µM): 16278 and 16156; TGR inhibition visualized by TRFS-Green, Average (5hr, 30 µM): 14810; TGR inhibition visualized by TRFS-Green, single replicate (5hr, 30 µM): 14697 and 14923; TGR inhibition visualized by TRFS-Green, Average (24hr, 5 µM): 29329.8; TGR inhibition visualized by TRFS-Green, single replicate (24hr, 5 µM): 29329.8; TGR inhibition visualized by TRFS-Green, Average (24hr, 15 µM): 17780.7; TGR inhibition visualized by TRFS-Green, single replicate (24hr, 15 µM): 17780.7; TGR inhibition visualized by TRFS-Green, Average (24hr, 30 µM): 15410.9; TGR inhibition visualized by TRFS-Green, single replicate (24hr, 30 µM): 15410.9
